According to the supplement of paper PMC8671470:

test system: myeloid leukemia patient primary cells Pat.14; assay: cell viability (% survival relative to DMSO control); higher = less cytotoxic; conditions: 1000 nM; 72 h
Outline: (§1)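 Thawed mononuclear cells from AML or CML patients were purified on Ficoll and cultured for 72 h in RPMI 1640 with 10% FBS, at 10,000 cells/well, on 384-well plates carrying 70 pre-printed compounds at 1–10,000 nM in five tenfold steps, in duplicate. Viability came from CellTiter-Glo, normalised against DMSO and against 10 μM proteasome inhibitor. Any area under the curve given was derived from log-logistic curve fits in the drc and PharmacoGx R packages, and these fits had four parameters.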

Row | Compound | cell viability [%]
1 | Clc1cc(Cl)c(OCC#CI)cc1Cl [Haloprogin] | 7.52
2 | O=c1[nH]c(=O)n([C@H]2C[C@H](O)[C@@H](CO)O2)cc1I [Idoxuridine] | 58.6

same assay, conditions: 10000 nM; 72 h

Row | Compound | cell viability [%]
3 | O=C(Cc1cccc(OC(F)(F)F)c1)Nc1ccc(CCCCc2nnc(NC(=O)Cc3ccccn3)s2)nn1 [CB-839] | 78.6
4 | O=C(/C=C/c1cccnc1)NCCCCC1CCN(C(=O)c2ccccc2)CC1 [Daporinad] | 0.671
5 | Nc1ccn([C@@H]2O[C@H](CO)[C@@H](O)C2(F)F)c(=O)n1 [Gemcitabine] | 25.8
6 | Clc1cc(Cl)c(OCC#CI)cc1Cl [Haloprogin] | < 0
7 | O=c1[nH]c(=O)n([C@H]2C[C@H](O)[C@@H](CO)O2)cc1I [Idoxuridine] | > 100

test system: myeloid leukemia patient primary cells Pat.15; assay: as above; conditions: 1 nM; 72 h
Outline: as §1

Row | Compound | cell viability [%]
8 | O=C(Cc1cccc(OC(F)(F)F)c1)Nc1ccc(CCCCc2nnc(NC(=O)Cc3ccccn3)s2)nn1 [CB-839] | 92.4
9 | O=C(/C=C/c1cccnc1)NCCCCC1CCN(C(=O)c2ccccc2)CC1 [Daporinad] | 80.9
10 | Nc1ccn([C@@H]2O[C@H](CO)[C@@H](O)C2(F)F)c(=O)n1 [Gemcitabine] | 96.3
11 | Clc1cc(Cl)c(OCC#CI)cc1Cl [Haloprogin] | 85.7
12 | O=c1[nH]c(=O)n([C@H]2C[C@H](O)[C@@H](CO)O2)cc1I [Idoxuridine] | 92.5

same assay, conditions: 10 nM; 72 h

Row | Compound | cell viability [%]
13 | O=C(Cc1cccc(OC(F)(F)F)c1)Nc1ccc(CCCCc2nnc(NC(=O)Cc3ccccn3)s2)nn1 [CB-839] | 89.2
14 | O=C(/C=C/c1cccnc1)NCCCCC1CCN(C(=O)c2ccccc2)CC1 [Daporinad] | 24.2
15 | Nc1ccn([C@@H]2O[C@H](CO)[C@@H](O)C2(F)F)c(=O)n1 [Gemcitabine] | 80.8
16 | Clc1cc(Cl)c(OCC#CI)cc1Cl [Haloprogin] | 98.8
17 | O=c1[nH]c(=O)n([C@H]2C[C@H](O)[C@@H](CO)O2)cc1I [Idoxuridine] | 93.5

same assay, conditions: 100 nM; 72 h

Row | Compound | cell viability [%]
18 | O=C(Cc1cccc(OC(F)(F)F)c1)Nc1ccc(CCCCc2nnc(NC(=O)Cc3ccccn3)s2)nn1 [CB-839] | 73.2
19 | O=C(/C=C/c1cccnc1)NCCCCC1CCN(C(=O)c2ccccc2)CC1 [Daporinad] | 0.879
20 | Nc1ccn([C@@H]2O[C@H](CO)[C@@H](O)C2(F)F)c(=O)n1 [Gemcitabine] | 82.5
21 | Clc1cc(Cl)c(OCC#CI)cc1Cl [Haloprogin] | 85.4
22 | O=c1[nH]c(=O)n([C@H]2C[C@H](O)[C@@H](CO)O2)cc1I [Idoxuridine] | 93.7

same assay, conditions: 1000 nM; 72 h

Row | Compound | cell viability [%]
23 | O=C(Cc1cccc(OC(F)(F)F)c1)Nc1ccc(CCCCc2nnc(NC(=O)Cc3ccccn3)s2)nn1 [CB-839] | 40.2
24 | O=C(/C=C/c1cccnc1)NCCCCC1CCN(C(=O)c2ccccc2)CC1 [Daporinad] | 1.32
25 | Nc1ccn([C@@H]2O[C@H](CO)[C@@H](O)C2(F)F)c(=O)n1 [Gemcitabine] | 78
26 | Clc1cc(Cl)c(OCC#CI)cc1Cl [Haloprogin] | 66.8
27 | O=c1[nH]c(=O)n([C@H]2C[C@H](O)[C@@H](CO)O2)cc1I [Idoxuridine] | 90.3

same assay, conditions: 10000 nM; 72 h

Row | Compound | cell viability [%]
28 | O=C(Cc1cccc(OC(F)(F)F)c1)Nc1ccc(CCCCc2nnc(NC(=O)Cc3ccccn3)s2)nn1 [CB-839] | 36.6
29 | O=C(/C=C/c1cccnc1)NCCCCC1CCN(C(=O)c2ccccc2)CC1 [Daporinad] | 0.659
30 | Nc1ccn([C@@H]2O[C@H](CO)[C@@H](O)C2(F)F)c(=O)n1 [Gemcitabine] | 41.8
31 | Clc1cc(Cl)c(OCC#CI)cc1Cl [Haloprogin] | 6.74
32 | O=c1[nH]c(=O)n([C@H]2C[C@H](O)[C@@H](CO)O2)cc1I [Idoxuridine] | 94.7

test system: myeloid leukemia patient primary cells Pat.1; assay: as above; conditions: 1 nM; 72 h
Outline: as §1

Row | Compound | cell viability [%]
33 | O=C(Cc1cccc(OC(F)(F)F)c1)Nc1ccc(CCCCc2nnc(NC(=O)Cc3ccccn3)s2)nn1 [CB-839] | 84.7
34 | O=C(/C=C/c1cccnc1)NCCCCC1CCN(C(=O)c2ccccc2)CC1 [Daporinad] | 98.2
35 | Nc1ccn([C@@H]2O[C@H](CO)[C@@H](O)C2(F)F)c(=O)n1 [Gemcitabine] | 83.4
36 | Clc1cc(Cl)c(OCC#CI)cc1Cl [Haloprogin] | 91.8
37 | O=c1[nH]c(=O)n([C@H]2C[C@H](O)[C@@H](CO)O2)cc1I [Idoxuridine] | 84.3

same assay, conditions: 10 nM; 72 h

Row | Compound | cell viability [%]
38 | O=C(Cc1cccc(OC(F)(F)F)c1)Nc1ccc(CCCCc2nnc(NC(=O)Cc3ccccn3)s2)nn1 [CB-839] | 81.3
39 | O=C(/C=C/c1cccnc1)NCCCCC1CCN(C(=O)c2ccccc2)CC1 [Daporinad] | 64.2
40 | Nc1ccn([C@@H]2O[C@H](CO)[C@@H](O)C2(F)F)c(=O)n1 [Gemcitabine] | 92.9
41 | Clc1cc(Cl)c(OCC#CI)cc1Cl [Haloprogin] | 99.9
42 | O=c1[nH]c(=O)n([C@H]2C[C@H](O)[C@@H](CO)O2)cc1I [Idoxuridine] | 81.5

same assay, conditions: 100 nM; 72 h

Row | Compound | cell viability [%]
43 | O=C(Cc1cccc(OC(F)(F)F)c1)Nc1ccc(CCCCc2nnc(NC(=O)Cc3ccccn3)s2)nn1 [CB-839] | 46.7
44 | O=C(/C=C/c1cccnc1)NCCCCC1CCN(C(=O)c2ccccc2)CC1 [Daporinad] | 20.9
45 | Nc1ccn([C@@H]2O[C@H](CO)[C@@H](O)C2(F)F)c(=O)n1 [Gemcitabine] | 99.6
46 | Clc1cc(Cl)c(OCC#CI)cc1Cl [Haloprogin] | 82
47 | O=c1[nH]c(=O)n([C@H]2C[C@H](O)[C@@H](CO)O2)cc1I [Idoxuridine] | 95

same assay, conditions: 1000 nM; 72 h

Row | Compound | cell viability [%]
48 | O=C(Cc1cccc(OC(F)(F)F)c1)Nc1ccc(CCCCc2nnc(NC(=O)Cc3ccccn3)s2)nn1 [CB-839] | 56.4
49 | O=C(/C=C/c1cccnc1)NCCCCC1CCN(C(=O)c2ccccc2)CC1 [Daporinad] | 16.9
50 | Nc1ccn([C@@H]2O[C@H](CO)[C@@H](O)C2(F)F)c(=O)n1 [Gemcitabine] | 76.6
51 | Clc1cc(Cl)c(OCC#CI)cc1Cl [Haloprogin] | 48.3
52 | O=c1[nH]c(=O)n([C@H]2C[C@H](O)[C@@H](CO)O2)cc1I [Idoxuridine] | 74.3

same assay, conditions: 10000 nM; 72 h

Row | Compound | cell viability [%]
53 | O=C(Cc1cccc(OC(F)(F)F)c1)Nc1ccc(CCCCc2nnc(NC(=O)Cc3ccccn3)s2)nn1 [CB-839] | 59.1
54 | O=C(/C=C/c1cccnc1)NCCCCC1CCN(C(=O)c2ccccc2)CC1 [Daporinad] | 11
55 | Nc1ccn([C@@H]2O[C@H](CO)[C@@H](O)C2(F)F)c(=O)n1 [Gemcitabine] | 54.5
56 | Clc1cc(Cl)c(OCC#CI)cc1Cl [Haloprogin] | 14.1
57 | O=c1[nH]c(=O)n([C@H]2C[C@H](O)[C@@H](CO)O2)cc1I [Idoxuridine] | 95.4

test system: myeloid leukemia patient primary cells Pat.2; assay: as above; conditions: 1 nM; 72 h
Outline: as §1

Row | Compound | cell viability [%]
58 | O=C(Cc1cccc(OC(F)(F)F)c1)Nc1ccc(CCCCc2nnc(NC(=O)Cc3ccccn3)s2)nn1 [CB-839] | 86.8
59 | O=C(/C=C/c1cccnc1)NCCCCC1CCN(C(=O)c2ccccc2)CC1 [Daporinad] | 91.1
